Source: publication PMC3960879 (Biology, 2013)

Key:
Details in all cases: CFG glycan array version 2; F17G at 200 µg/mL; SEM in parentheses
[1] = biological target: F17aG lectin domain (Escherichia coli, UniProt Q99003)
Method: (§1) A microarray presenting 264 different glycans (mammalian printed array version 2) was used to evaluate if the F17G variant lectin domains differ in the range of glycan receptors that they recognize, thereby establishing tropism. The microarray was set up within the Consortium for Functional Glycomics (CFG) ([20], and supplemental data). Binding of F17G (200 µg/mL) was detected using anti-F17G polyclonal rabbit IgG (10 µg/mL), followed by fluorescently labelled goat anti-rabbit polyclonal antibodies (IgG-488, 5 µg/mL).
(§2) A microarray presenting 264 different glycans (mammalian printed array version 2 from the CFG, experiment 400) was used to evaluate whether the F17G variant lectin domains differ in the range of glycan receptors that they can recognize, thereby establishing strain-dependent tropism. […] The glycan array screening has been repeated for F17aG only on printed array version 4.1 (experiment 2053) (Figure 1).
(§3) Printed array version 2 at the Consortium for Functional Glycomics was used for glycan array screening of the variant F17G receptor binding domains. Slides were printed, with six replicates for each glycan, using glycan spotting concentrations of 100 μM, at the Consortium Carbohydrate Synthesis/Protein Expression Core D located at the Scripps Research Institute onto Schott Nexterion H slides (Schott Cat. No. 1070936B). Slide conditioning: preprinted slides were soaked in deionized water for 5 minutes at room temperature and dried under a stream of nitrogen. TSM buffer (20 mM Tris-HCl, pH 7.4, or MOPS 20 mM; 150 mM NaCl; 2 mM CaCl2, 2 mM MgCl2) was used as wash buffer (TSM buffer + 0.05% Tween 20) or binding buffer (TSM buffer + 0.05% Tween 20 + 1% BSA). (1) F17G was diluted to 200 μg/mL (Figure 1) in TSM binding buffer. (2) 50 μL of F17G was applied to the printed surface and coverslipped. (3) The slide was incubated, protected from light, in a humidified chamber for 1 hour at RT. (4) The slide was washed once in TSM wash buffer. 50 μL of the anti-F17G (10 μg/mL) polyclonal rabbit IgG were applied, coverslipped and incubated for 1 h at RT. (5) The slide was washed once in TSM wash buffer. Fifty μL of fluorescently labelled secondary goat anti-rabbit polyclonal antibodies (IgG-488, 5 µg/mL) were applied, coverslipped and incubated for 1 h at RT. (6) Slide was removed, followed by the coverslip, and washed for 10 s each in TSM wash buffer, TSM wash buffer lacking Tween 20, and deionized water. The slide was dried under a stream of nitrogen. (7) The binding image was read in a Perkin Elmer Microscanarray XL4000 scanner and tiff file of image stored. (8) Image analysis was performed using Imagene (V.6) image analysis software. (9) Raw data results files were generated in Excel format and uploaded to the Consortium database as .dat files. (10) Imagene data was uploaded to the database as .txt files.

[2] = biological target: F17bG lectin domain (Escherichia coli, UniProt Q47200)
F17bG lectin domain, sequence (Q47200 23-199): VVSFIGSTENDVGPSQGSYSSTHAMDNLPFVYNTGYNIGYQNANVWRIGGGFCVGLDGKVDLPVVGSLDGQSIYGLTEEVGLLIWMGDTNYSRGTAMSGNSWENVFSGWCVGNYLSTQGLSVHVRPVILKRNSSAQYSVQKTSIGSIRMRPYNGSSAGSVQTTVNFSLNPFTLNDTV
Method: as §1, §2, §3

[3] = biological target: F17dG lectin domain (Escherichia coli, UniProt Q47199)
F17dG lectin domain, sequence (Q47199 23-199): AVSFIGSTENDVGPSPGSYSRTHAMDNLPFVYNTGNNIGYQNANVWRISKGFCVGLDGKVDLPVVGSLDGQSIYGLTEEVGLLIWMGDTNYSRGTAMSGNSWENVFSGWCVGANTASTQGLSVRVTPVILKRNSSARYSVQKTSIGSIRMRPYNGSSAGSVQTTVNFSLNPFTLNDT
Method: as §1, §2, §3

[4] = test system: F17eG lectin domain; experiment: CFG mammalian printed glycan array version 2 (experiment 400), F17eG; assay type: binding, Escherichia coli
Excerpt: (§4) The slide was dried under a stream of nitrogen.

[5] = test system: F17fG lectin domain; experiment: CFG mammalian printed glycan array version 2 (experiment 400), F17fG; assay type: binding, Escherichia coli
Excerpt: as §4

F17aG lectin domain, sequence (Q99003 23-199): as the sequence (Q47199 23-199) above, with P16L, N33D, G35R, N37K, R47H, N90K counted along it

| Compound | Relative Fluorescence Units (RFU), averaged over six replicates, F17aG [1] | Relative Fluorescence Units (RFU), averaged over six replicates, F17bG [2] | Relative Fluorescence Units (RFU), averaged over six replicates, F17dG [3] | Relative Fluorescence Units (RFU), averaged over six replicates, F17eG [4] | Relative Fluorescence Units (RFU), averaged over six replicates, F17fG [5] |
| --- | --- | --- | --- | --- | --- |
| CC(=O)N[C@H]1[C@H](OC[C@H]2O[C@H](OCCCN)[C@H](NC(C)=O)[C@@H](O[C@@H]3O[C@H](CO)[C@H](O)[C@H](O)[C@H]3O)[C@H]2O)O[C@H](CO)[C@@H](O)[C@@H]1O [Galβ1,3(GlcNAcβ1,6)GalNAcα-Sp8] | 10,256 (1,410) RFU | 6,215 (1,046) RFU | 3,850 (364) RFU | 50,893 (5,540) RFU | 3,195 (811) RFU |
| CC(=O)N[C@H]1[C@H](OCCCN)O[C@H](CO)[C@@H](O[C@@H]2O[C@H](CO[C@@H]3O[C@H](CO)[C@@H](O)[C@H](O)[C@H]3NC(C)=O)[C@H](O)[C@H](O[C@@H]3O[C@H](CO)[C@@H](O)[C@H](O)[C@H]3NC(C)=O)[C@H]2O)[C@@H]1O [GlcNAcβ1,3(GlcNAcβ1,6)Galβ1,4GlcNAcβ-Sp8] | 44,391 (3,949) RFU | 21,630 (2,490) RFU | 17,195 (3,442) RFU | 41,907 (4,694) RFU | 37,083 (5,973) RFU |
| CC(=O)N[C@H]1[C@H](O[C@H]2[C@@H](O)[C@@H](CO)O[C@H](OCCCN)[C@@H]2NC(C)=O)O[C@H](CO)[C@@H](O)[C@@H]1O [GlcNAcβ1,3GalNAcα-Sp8] | 25,971 (3,174) RFU | 15,182 (2,925) RFU | 6,635 (2,735) RFU | 33,330 (7,321) RFU | 10,999 (2,929) RFU |
| CC(=O)N[C@H]1[C@H](O[C@H]2[C@@H](O)[C@@H](CO)O[C@@H](OCCCN)[C@@H]2O)O[C@H](CO)[C@@H](O)[C@@H]1O [GlcNAcβ1,3Galβ-Sp8] | 32,288 (4,175) RFU | 16,310 (1,907) RFU | 16,277 (9,959) RFU | 38,836 (5,631) RFU | 27,648 (1,137) RFU |
| CC(=O)N[C@H]1[C@H](OCCCN)O[C@H](CO)[C@@H](O[C@@H]2O[C@H](CO)[C@@H](O[C@@H]3O[C@H](CO)[C@@H](O)[C@H](O)[C@H]3NC(C)=O)[C@H](O)[C@H]2NC(C)=O)[C@@H]1O [GlcNAcβ1,4GlcNAcβ1,4GlcNAcβ-Sp8] | 848 (88) RFU | 2,860 (706) RFU | 1,690 (251) RFU | 5,689 (1,085) RFU | 2,418 (613) RFU |
| CC(=O)N[C@H]1[C@H](OCCN)O[C@H](CO)[C@@H](O)[C@@H]1O [GlcNAcβ-Sp0] | 15,621 (2,697) RFU | 14,972 (2,705) RFU | 3,377 (643) RFU | 34,825 (6,475) RFU | 5,354 (1,572) RFU |
| CC(=O)N[C@H]1[C@H](OCCCN)O[C@H](CO)[C@@H](O)[C@@H]1O [GlcNAcβ-Sp8] | 22,909 (3,087) RFU | 12,289 (1,168) RFU | 2,514 (365) RFU | 31,863 (4,615) RFU | 10,738 (2,670) RFU |
| NCCCO[C@@H]1O[C@H](CO)[C@@H](O)[C@H](O)[C@H]1N [GlcNH2β-Sp8] | 554 (117) RFU | 7,281 (1,506) RFU | 1,950 (1,358) RFU | 548 (256) RFU | 1,385 (464) RFU |
| (GlcNAcβ1,3(GlcNAcβ1,6)GlcNAcβ1,4)GlcNAc-Sp8 | 20,305 (2,023) RFU | 6,148 (1,367) RFU | 8,080 (1,518) RFU | 50,775 (6,375) RFU | 2,992 (992) RFU |
| GalNAcβ1,3GalNAcα-Sp8 |  | 17,169 (4,228) RFU | 11,034 (1204) RFU | 50,791 (5,749) RFU | 10,691 (3,009) RFU |
| Galβ1,4GlcNAcβ1,3Galβ1,4Glcβ-Sp0 | 391 (24) RFU | 1,090 (262) RFU | 919 (375) RFU | 3,942 (857) RFU | 663 (146) RFU |
| Galβ1,4GlcNAcβ-Sp0 | 1,703 (1,070) RFU | 1,974 (289) RFU | 249 (94) RFU | 19,659 (4,594) RFU | 1,279 (106) RFU |
| GlcNAcβ1,2Galβ1,3GalNAcα-Sp8 | 5,082 (4,924) RFU | 1,016 (239) RFU | 75 (35) RFU | 305 (148) RFU | 563 (125) RFU |
| GlcNAcβ1,3(GlcNAcβ1,6)GalNAcα-Sp8 | 35,858 (4,079) RFU | 12,183 (1,524) RFU | 23,756 (2,105) RFU | 46,840 (6,520) RFU |  |
| GlcNAcβ1,3Galβ1,3GalNAcα-Sp8 | 7,713 (866) RFU | 10,655 (880) RFU | 3,999 (1,481) RFU | 47,984 (3,178) RFU | 31,661 (2,807) RFU |
| GlcNAcβ1,6(Galβ1,3)GalNAcα-Sp8 | 12,541 (1,115) RFU | 6,017 (587) RFU | 3,492 (658) RFU |  | 3,206(997) RFU |
